This is an account of results in patent US8278326B2, “Inhibitors of protein phosphatase-1 and uses thereof” (Howard University, priority 2008, dated 2012).

In one series the test system is HIV-1 IIIB. As to the kind of experiment: Inhibition of HIV-1 replication, IIIB (Table 6). The class given is cell-based. To be noted: for inhibition of HIV-1 replication: Table 6 (IIIB, Q148R, N155H); for IC50: read-out: IIIB, IC50, HIV-1 replication. As to the method:
(§1) Compounds 1H4, 1E07, B03 and as a control 1G3 were analyzed for inhibition of HIV-1 replication and results are shown in Table 6.

For series [1], the system named is Tat-induced HIV-1 transcription. The series is described as follows: Inhibition of Tat-induced HIV-1 transcription in 293T cells transfected with Tat-expressing vector, HIV-1 LTR-LacZ reporter and CMV-EGFP reporter. To be noted: for inhibition of Tat-induced HIV-1 transcription in 293T cells: in words. The class given is cell-based. The procedure: (§2) The compounds from Table 2 were further evaluated using 293T cells transfected with Tat- and HIV-1 LTR-LacZ. […] Compounds 1H4, 3C8, and 1G3 were further evaluated in 293T cells transfected with Tat-expressing vector, HIV-1 LTR-LacZ reporter and CMV-EGFP reporter. Inhibitory properties of these compounds were evaluated using 293T cells transfected with Tat-expressing vector, HIV-1 LTR-LacZ reporter and CMV-EGFP reporter (Ammosova et al., 2005a). 293T cells were transfected with lipofectamine and then treated with each of the selected compounds for 18 hours. Then the cells were lysed and GFP and β-galactosidase activity was determined as we previously described (Ammosova et al., 2005a). Compound 1H4 was the most inhibitory with IC50=5 μM (FIG. 1B). […] Neither of the compounds was cytotoxic as determined by LDH assay (not shown).

The test system of a further series is PP1. As to the kind of experiment: Tat-PP1 competition assay (PP1 activity). To be noted: for effect on Tat-mediated inhibition of PP1: 50 μM compound, 4 nM PP1, glycylglycine buffer (FIG. 3A). The class given is biochemical. The procedure: (§3) Competition assays were performed with 4 nM PP1 in glycylglycine buffer. […] To analyze if 1H4 compound has an effect on the activity of CDK2 we incubated recombinant CDK2/cyclin E with histone H1 without or with the addition of increasing concentrations of 1H4.

The next series relates to recombinant pNL4-3 HIV-1. The series is described as follows: HIV-1 replication in MT4 cells infected with recombinant pNL4-3 HIV-1. The class given is cell-based. To be noted: for inhibition of HIV-1 replication: MT4 cells, 1H4 at 10 μM or 25 μM (FIG. 2). As to the method: HIV-1 replication is inhibited by a small molecular mimetic of QVCF peptide. The 1H4 compound was evaluated to determine whether it could inhibit HIV-1 replication. MT4 cells were infected with recombinant pNL4-3 HIV-1 and treated with different concentrations of 1H4 compound and as a control 1G3 compound.

In the next series the test system is 293T cells. As to the kind of experiment: Measurements of cytotoxicity, FIG. 1A. The class given is cell-based. The procedure:
as §2

A further series has as its system HIV-1 N155H. The series is described as follows: Inhibition of HIV-1 replication, N155H (Table 6). It is filed as cell-based. The settings on record: read-out: N155H, IC50. As to the method:
as §1

A further series relates to HIV-1 Q148R. As to the kind of experiment: Inhibition of HIV-1 replication, Q148R (Table 6). To be noted: read-out: Q148R, IC50. It is filed as cell-based. As to the method: as §1
Series [2] relates to HIV-1 transcription. The series is described as follows: Inhibition of transcription, FIG. 1A (293T cells transfected with Tat- and HIV-1 LTR-LacZ). The class given is cell-based. As to the method: as §2
For series [3], the system named is HIV-1 transcription. The series is described as follows: Inhibition of Tat-induced HIV-1 transcription in Ad-Tat-infected CEM GFP reporter cells. It is filed as cell-based. To be noted: for inhibition of HIV-1 transcription in CEM cells: CEM T-cells, 1H4-based library, in words. The procedure: (§4) Identification of the inhibitory compounds: The library was analyzed for the inhibition of HIV-1 transcription using reporter CEM GFP cells (courtesy of AIDS Reagents Program, NIH) that were infected with adenovirus expressing HIV-1 Tat activator protein (Ad-Tat) as previously described (Nekhai et al., 2007). Infection of CEM-GFP cells with Adeno-Tat induced HIV-1 transcription that was measured as gain of GFP fluorescence (Nekhai et al., 2007). Compounds were added at 25 μM concentration to the Ad-Tat-infected CEM-GFP cells and incubated for 24-48 hours. Cytotoxicity was evaluated by the uptake of propidium iodide (PI).

Series [4] concerns the target recombinant CDK2/cyclin E (Homo sapiens, UniProt P24941). The series is described as follows: CDK2/cyclin E activity with histone H1. It is filed as biochemical. To be noted: increasing concentrations; histone H1 substrate. The procedure: as §3
A further series deals with CEM GFP cells. The series is described as follows: Cytotoxicity in CEM cells by uptake of propidium iodide. To be noted: 1H4-based library. The class given is cell-based. As to the method: as §4
Identification of addition inhibitors. The 1H4 compound was used to create a second library of compounds that would have similar backbone as 1H4. This second library contained 143 compounds. These compounds were analyzed for the inhibition of HIV-1 transcription and toxicity in CEM T-cells and 293T cells similar as described above for the analysis of the first library.

As for `COc1ccc(C(CNC(=O)CN2CCc3ccccc3C2)c2c[nH]c3ccccc23)cc1` (centres unmarked) [B03], the “inhibition of HIV-1 replication” value in the series on HIV-1 IIIB was “not inhibitory”. Further, the “inhibition of Tat-induced HIV-1 transcription in 293T cells” value (from here on “inhibition … in 293T cells”) in [1] was “inhibitory”.

For the molecule `COc1ccc(C(CNC(=O)CN2CCc3ccccc3C2)c2c[nH]c3ccccc23)cc1` (centres unmarked) [1G3, reference compound], the “effect on Tat-mediated inhibition of PP1” value with PP1 is on record as “did not affect Tat-mediated inhibition of PP1”. The IC50 is 37 µM in the series on HIV-1 IIIB, 59 µM in the series on HIV-1 N155H and 42 µM with HIV-1 Q148R. Besides, the “induction of HIV-1 replication” value in the series on recombinant pNL4-3 HIV-1 (MT4 cells (FIG. 2)) was “about 2 fold”. Moreover, the “inhibition of HIV-1 replication” value in the series on recombinant pNL4-3 HIV-1 is “did not inhibit HIV-1 replication”. Also, the “cytotoxicity (FIG. 1A)” value in the series on 293T cells is on record as “neither inhibitory nor toxic”. Further, in the series on HIV-1 transcription [2], the “inhibition of HIV-1 transcription (FIG. 1A)” value is on record as “neither inhibitory nor toxic”.

As to `COc1ccc(C(CNC(=O)CN2CCc3ccccc3C2)c2c[nH]c3ccccc23)cc1` (centres unmarked) [2F02], in the series on HIV-1 transcription [3], the “inhibition of HIV-1 transcription in CEM cells” value is on record as “inhibited HIV-1 transcription”. Moreover, the “inhibition … in 293T cells” value in [1] is “inhibited HIV-1 transcription”.

With `COc1ccc(C(CNC(=O)CN2CCc3ccccc3C2)c2c[nH]c3ccccc23)cc1` (centres unmarked) [E06], in [1], the “inhibition … in 293T cells” value is on record as “inhibitory”.

Regarding `COc1ccc(C(CNC(=O)CN2CCc3ccccc3C2)c2c[nH]c3ccccc23)cc1` (centres unmarked) [1H4], the “effect on Tat-mediated inhibition of PP1” value in the series on PP1 was “relieved Tat-mediated inhibition of PP1”. Further, in [4], the “effect on the activity of CDK2” value is on record as “did not have a significant effect”. Besides, the “inhibition of HIV-1 replication” value in the series on HIV-1 IIIB and in the series on recombinant pNL4-3 HIV-1 was “inhibited HIV-1 replication” in each case. For the same molecule, the IC50 in the series on HIV-1 IIIB was 9.4 µM; in [1] (Human immunodeficiency virus 1, HEK-293T, read-out: Transcription inh. in 293T cells (IC-50)), 5 µM; with HIV-1 N155H, 8 µM; in the series with HIV-1 Q148R, 4.7 µM. Moreover, the “cytotoxicity (FIG. 1A)” value with 293T cells is reported as “not toxic”. Also, the “inhibition of HIV-1 transcription (FIG. 1A)” value in the series with HIV-1 transcription [2] is reported as “inhibited HIV-1 transcription”.

On to `COc1ccc(C(CNC(=O)CN2CCc3ccccc3C2)c2c[nH]c3ccccc23)cc1` (centres unmarked) [1E07], for which the “toxicity in the propidium iodide uptake assay” value with CEM GFP cells is “not toxic”. Also, the “inhibition of HIV-1 transcription in CEM cells” value in the series on HIV-1 transcription [3] is “inhibited HIV-1 transcription”. The “inhibition of HIV-1 replication” value in the series on HIV-1 IIIB is given as “inhibited HIV-1 replication”. Further, the IC50 in the series with HIV-1 IIIB is 2.5 µM; in the series on HIV-1 N155H, 3.2 µM; in the series on HIV-1 Q148R, 1.5 µM. Moreover, the “inhibition … in 293T cells” value in series [1] is “inhibited HIV-1 transcription”.

In the case of `CC(OC(=O)c1c2c(nc3ccccc13)/C(=C/c1ccc(Cl)cc1)CC2)C(=O)NC(N)=O` (centres unmarked), the “inhibition of HIV-1 transcription” value in the series with HIV-1 transcription [3] (cell line not stated, appeared to increase the rate of transcription instead) is listed as “ineffective for inhibition of HIV-1 transcription”.

B1: Tat: HIV-1 Tat protein that binds to the RVxF pocket of PP1 (protein, UniProt P04608 1-86, looked up)
Protein Tat: MEPVDPRLEPWKHPGSQPKTACTNCYCKKCCFHCQVCFITKALGISYGRKKRRQRRRAHQNSQTHQASLSKQPTSQPRGDPTGPKE
For the molecule B1, in the series with PP1 (excess of Tat protein, 4 nM PP1 (FIG. 3A)), the “inhibition of PP1” value is recorded as “inhibited PP1”.
